The subject of assay [1] is Methicillin Resistant Staphylococcus aureus strain USA 200. Nature of the assay: Minimum inhibitory concentration (MIC), CLSI broth micro-dilution, S. aureus. Type of assay: cell-based. Particulars: Staphylococcus aureus, MRSA / USA200; Table 6; MRSA USA 200; cation adjusted Mueller Hinton Broth + 0.002% Tween-80; 35° C., 22 hours. The method, then:
In vitro antimicrobial activity of each compound was determined by measuring minimal inhibitor concentrations (MICs) using the broth micro-dilution technique as approved by the Clinical and Laboratory Standards Institute (CLSI) (Methods for Dilution Antimicrobial Susceptibility Tests for Bacteria that Grow Aerobically; Approved Standard-Eighth Edition. CLSI document M07-A8. Wayne, PA: Clinical and Laboratroy Standards; 2009). Antibacterial activity was measure against two strains of bacteria: a Methicillin Resistant Staphylococcus aureus strain USA 200, (S. aureus) and Escherichia coli ATCC 25922 (E. coli), a clinically relevant Gram-negative strain. Cells were inoculated onto plates of Trypyticase Soy Agar or Luria Agar respectively and grown at 35° C. for 20 hours. Inocula suspensions were prepared by scraping cells into 1 mL of testing media (cation adjusted Mueller Hinton Broth supplemented with 0.002% v/v Tween-80) and diluting to a final OD600nm of 0.01.
Test compounds were prepared in DMSO at a concentration of 10 mg/mL. In protocol 1, the compound stocks were diluted into testing media at a concentration of 64 µg/ml and serial 2-fold dilutions were made in the same media, in 96-well U bottom microtiter dishes, for a total of 10 compound concentrations. In protocol 2, the compound stocks were diluted into testing media at a concentration of 4 µg/mL and serial 2-fold dilutions were made in the same media, in 96-well U bottom microtiter dishes, for a total of 10 compound concentrations. In protocol 3, compound stocks were diluted into testing media at a concentration of 0.5 μg/mL, with serial 2-fold dilutions conducted as described above. In protocol 4, compound stocks were diluted into testing media at a concentration of […], with serial 2-fold dilutions conducted as described above. Inocula suspensions were added to the 2-fold serial dilutions of test compounds to a final density of GD OD600nm of 0.0005 and incubated at 35° C. for 22 hours.
(In broth dilution the organism is exposed to a series of concentrations in liquid medium.)

Assay [2] deals with Escherichia coli ATCC 25922. Nature of the assay: Minimum inhibitory concentration (MIC), CLSI broth micro-dilution, E. coli. As to conditions: Escherichia coli, ATCC25922, 22 h, Table 6, cation adjusted Mueller Hinton Broth + 0.002% Tween-80, 35° C. Type of assay: cell-based. The method, boiled down:
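Colonies grown 20 h at 35° C on Trypticase Soy agar (MRSA) or Luria agar (E. coli) were suspended in cation-adjusted Mueller Hinton broth with 0.002% Tween-80. Suspensions were added at OD600 0.0005 to 10-point twofold compound dilutions, then incubated 22 h at 35° C.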

Broadly, the MIC is the lowest concentration found to suppress growth. Consider `Cc1nc(-c2ccc3c(c2)CCCC3)ncc1C(=O)N[C@@H](CCN)C(=O)N(C)[C@@H]1C(=O)N[C@@H](C)C(=O)N[C@H](C(=O)NCC#N)Cc2ccc(OCCN)c(c2)-c2cc1ccc2OCCN` (racemic) [Compound 216, rac-(8S,11S,14S)-3,18-bis(2-aminoethoxy)-N-(cyanomethyl)-11-methyl-14-[methyl-[rac-(2S)-4-amino-2-[(4-methyl-2-tetralin-6-yl-pyrimidine-5-carbonyl)amino]butanoyl]amino]-10,13-dioxo-9,12-diazatricyclo[13.3.1.12,6]icosa-1(18),2(20),3,5,15(19),16-hexaene-8-carboxamide], for which the MIC was 0.0084 µM in assay [1] and 0.2 µM in assay [2].

For `Cc1nc(-c2ccc(CC3CCC3)cc2)ncc1C(=O)N[C@@H](CCN)C(=O)N(C)[C@@H]1C(=O)N[C@@H](C)C(=O)N[C@H](C(=O)NCC#N)Cc2ccc(OCCN)c(c2)-c2cc1ccc2OCCN` (racemic) [Compound 217, rac-(8S,11S,14S)-3,18-bis(2-aminoethoxy)-N-(cyanomethyl)-11-methyl-14-[methyl-[rac-(2S)-4-amino-2-[[2-[4-(cyclobutylmethyl)phenyl]-4-methyl-pyrimidine-5-carbonyl]amino]butanoyl]amino]-10,13-dioxo-9,12-diazatricyclo[13.3.1.12,6]icosa-1(18),2(20),3,5,15(19),16-hexaene-8-carboxamide], the values for the MIC in assay [1] and in assay [2] were 0.0082 µM and 0.099 µM, respectively.

On to `Cc1nc(-c2ccc(CC3CCCC3)cc2)ncc1C(=O)N[C@@H](CCN)C(=O)N(C)[C@@H]1C(=O)N[C@@H](C)C(=O)N[C@H](C(=O)NCC#N)Cc2ccc(OCCN)c(c2)-c2cc1ccc2OCCN` (racemic) [Compound 218, rac-(8S,11S,14S)-3,18-bis(2-aminoethoxy)-N-(cyanomethyl)-11-methyl-14-[methyl-[rac-(2S)-4-amino-2-[[2-[4-(cyclopentylmethyl)phenyl]-4-methyl-pyrimidine-5-carbonyl]amino]butanoyl]amino]-10,13-dioxo-9,12-diazatricyclo[13.3.1.12,6]icosa-1(18),2(20),3,5,15(19),16-hexaene-8-carboxamide], for which the MIC in assay [1] is 0.012 µM; in assay [2] it was 0.097 µM.

In the case of `Cc1nc(-c2ccc(C3(C(F)(F)F)CC3)cc2)ncc1C(=O)N[C@@H](CCN)C(=O)N(C)[C@@H]1C(=O)N[C@@H](C)C(=O)N[C@H](C(=O)NCC#N)Cc2ccc(OCCN)c(c2)-c2cc1ccc2OCCN` (racemic) [Compound 219, rac-(8S,11S,14S)-3,18-bis(2-aminoethoxy)-N-(cyanomethyl)-11-methyl-14-[methyl-[rac-(2S)-4-amino-2-[[4-methyl-2-[4-[1-(trifluoromethyl)cyclopropyl]phenyl]pyrimidine-5-carbonyl]amino]butanoyl]amino]-10,13-dioxo-9,12-diazatricyclo[13.3.1.12,6]icosa-1(18),2(20),3,5,15(19),16-hexaene-8-carboxamide], the minimum inhibitory concentration (MIC) in assay [1] turned out to be 0.012 µM; in assay [2] it was 0.13 µM.

`Cc1nc(-c2ccc(CCC(C)C)cc2)ncc1C(=O)N[C@@H](CCN)C(=O)N(C)[C@@H]1C(=O)N[C@@H](C)C(=O)N[C@H](C(=O)NCC#N)Cc2ccc(OCCN)c(c2)-c2cc1ccc2OCCN` (racemic) [Compound 220, rac-(8S,11S,14S)-3,18-bis(2-aminoethoxy)-N-(cyanomethyl)-11-methyl-14-[methyl-[rac-(2S)-4-amino-2-[[2-(4-isopentylphenyl)-4-methyl-pyrimidine-5-carbonyl]amino]butanoyl]amino]-10,13-dioxo-9,12-diazatricyclo[13.3.1.12,6]icosa-1(18),2(20),3,5,15(19),16-hexaene-8-carboxamide]: the minimal inhibitory concentration (MIC) is 0.0062 µM in assay [1] and 0.099 µM in assay [2].

As to `CCc1ccc(-c2ncc(C(=O)N[C@@H](CCN)C(=O)N(C)[C@@H]3C(=O)N[C@@H](C)C(=O)N[C@H](C(=O)NCC#N)Cc4ccc(OCCN)c(c4)-c4cc3ccc4OCCN)c(C)n2)c2ccccc12` (racemic) [Compound 221, rac-(8S,11S,14S)-3,18-bis(2-aminoethoxy)-N-(cyanomethyl)-11-methyl-14-[methyl-[rac-(2S)-4-amino-2-[[2-(4-ethyl-1-naphthyl)-4-methyl-pyrimidine-5-carbonyl]amino]butanoyl]amino]-10,13-dioxo-9,12-diazatricyclo[13.3.1.12,6]icosa-1(18),2(20),3,5,15(19),16-hexaene-8-carboxamide], the values for the minimal inhibitory concentration (MIC) in assay [1] and in assay [2] were 0.024 µM and 1 µM, respectively.

`CCCc1ccc(-c2ncc(C(=O)N[C@@H](CCN)C(=O)N(C)[C@@H]3C(=O)N[C@@H](C)C(=O)N[C@H](C(=O)NCC#N)Cc4ccc(OCCN)c(c4)-c4cc3ccc4OCCN)c(C)n2)c(C)c1` (racemic) [Compound 222, rac-(8S,11S,14S)-3,18-bis(2-aminoethoxy)-N-(cyanomethyl)-11-methyl-14-[methyl-[rac-(2S)-4-amino-2-[[4-methyl-2-(2-methyl-4-propyl-phenyl)pyrimidine-5-carbonyl]amino]butanoyl]amino]-10,13-dioxo-9,12-diazatricyclo[13.3.1.12,6]icosa-1(18),2(20),3,5,15(19),16-hexaene-8-carboxamide]: the figures for the MIC in assay [1] and in assay [2] were 0.033 µM and 0.53 µM, respectively.

Regarding `CCCCc1ccc(-c2ncc(C(=O)N[C@@H](CCN)C(=O)N(C)[C@@H]3C(=O)N[C@@H](C)C(=O)N[C@H](C(=O)NCC#N)Cc4ccc(OCCN)c(c4)-c4cc3ccc4OCCN)c(C)n2)c(C)c1` (racemic) [Compound 223, rac-(8S,11S,14S)-3,18-bis(2-aminoethoxy)-N-(cyanomethyl)-11-methyl-14-[methyl-[rac-(2S)-4-amino-2-[[2-(4-butyl-2-methyl-phenyl)-4-methyl-pyrimidine-5-carbonyl]amino]butanoyl]amino]-10,13-dioxo-9,12-diazatricyclo[13.3.1.12,6]icosa-1(18),2(20),3,5,15(19),16-hexaene-8-carboxamide], the values for the MIC in assay [1] and in assay [2] were 0.016 µM and 0.26 µM, respectively.

For the compound `Cc1nc(-c2ccc(C3(C)CC3)cc2)ncc1C(=O)N[C@@H](CCN)C(=O)N(C)[C@@H]1C(=O)N[C@@H](C)C(=O)N[C@H](C(=O)NCC#N)Cc2ccc(OCCN)c(c2)-c2cc1ccc2OCCN` (racemic) [Compound 224, rac-(8S,11S,14S)-3,18-bis(2-aminoethoxy)-N-(cyanomethyl)-11-methyl-14-[methyl-[rac-(2S)-4-amino-2-[[4-methyl-2-[4-(1-methylcyclopropyl)phenyl]pyrimidine-5-carbonyl]amino]butanoyl]amino]-10,13-dioxo-9,12-diazatricyclo[13.3.1.12,6]icosa-1(18),2(20),3,5,15(19),16-hexaene-8-carboxamide], the values for the MIC in assay [1] and in assay [2] were 0.017 µM and 0.13 µM, respectively.

In the case of `Cc1nc(-c2ccc(S(F)(F)(F)(F)F)cc2)ncc1C(=O)N[C@@H](CCN)C(=O)N(C)[C@@H]1C(=O)N[C@@H](C)C(=O)N[C@H](C(=O)NCC#N)Cc2ccc(OCCN)c(c2)-c2cc1ccc2OCCN` (racemic) [Compound 225, rac-(8S,11S,14S)-3,18-bis(2-aminoethoxy)-N-(cyanomethyl)-11-methyl-14-[methyl-[rac-(2S)-4-amino-2-[[4-methyl-2-[4-(pentafluoro-lambda6-sulfanyl)phenyl]pyrimidine-5-carbonyl]amino]butanoyl]amino]-10,13-dioxo-9,12-diazatricyclo[13.3.1.12,6]icosa-1(18),2(20),3,5,15(19),16-hexaene-8-carboxamide], the minimal inhibitory concentration (MIC) was 0.016 µM in assay [1] and 0.19 µM in assay [2].

With `CCCC#Cc1ccc(-c2ncc(C(=O)N[C@@H](CCN)C(=O)N(C)[C@@H]3C(=O)N[C@@H](C)C(=O)N[C@H](C(=O)NCC#N)Cc4ccc(OCCN)c(c4)-c4cc3ccc4OCCN)c(C)n2)cc1` (racemic) [Compound 227, rac-(8S,11S,14S)-3,18-bis(2-aminoethoxy)-N-(cyanomethyl)-11-methyl-14-[methyl-[rac-(2S)-4-amino-2-[[4-methyl-2-(4-pent-1-ynylphenyl)pyrimidine-5-carbonyl]amino]butanoyl]amino]-10,13-dioxo-9,12-diazatricyclo[13.3.1.12,6]icosa-1(18),2(20),3,5,15(19),16-hexaene-8-carboxamide], the MIC was found to be 0.017 µM in assay [1] and 0.077 µM in assay [2].
